Measured values reported in BindingDB's records for doi:10.1021/jm00100a013 (Medical University of South Carolina, 1992).
pKi: −log10 of the molar value.

The compounds below were run against Folylpolyglutamate synthase (Sus scrofa) (assay: Inhibitory activity against hog liver Folyl polyglutamate synthetase (FPGS)).

pKi	SMILES
8.06	NCCCC(NC(=O)c1ccc(NCc2ccc3nc(N)[nH]c(=O)c3c2C(F)(F)F)cc1)C(=O)O (centres undefined)
6.30	NCCCC(NC(=O)c1ccc(CNc2ccc3nc(N)[nH]c(=O)c3c2Cl)cc1)C(=O)O (centres undefined)
6.05	NCCCC(NC(=O)c1ccc(CNc2ccc3nc(N)[nH]c(=O)c3c2F)cc1)C(=O)O (centres undefined)
7.96	NCCCC(NC(=O)c1ccc(CNc2ccc3nc(N)[nH]c(=O)c3c2C(F)(F)F)cc1)C(=O)O (centres undefined)
